Source: patent US20210045385A1, “PYRIDAZINONE-SUBSTITUTED KETOXIMES AS HERBICIDES” (FMC Corporation, priority 2018, published 2021)

Tests used:
Assay type in all cases: in vivo
[1] = test system: Italian ryegrass (Lolium mutiflorum); test: Test C preemergence, visual plant response rating
Text: (§1) Seeds of plant species selected from barnyardgrass (Echinochloa crus-galli), kochia (Bassia scoparia), ragweed (common ragweed, Ambrosia artemisiifolia), Italian ryegrass (Lolium mutiflorum), foxtail, giant (giant foxtail, Setaria faberi), foxtail, green (green foxtail, Setaria viridis), and pigweed (Amaranthus retroflexus) were planted into a blend of loam soil and sand and treated preemergence with a directed soil spray using test chemicals formulated in anon-phytotoxic solvent mixture which included a surfactant.
(§2) At the same time, plants selected from these weed species and also wheat (Triticum aestivum), corn (Zea mays), blackgrass (Alopecurus myosuroides), and galium (catchweed bedstraw, Galium aparine) were planted in pots containing the same blend of loam soil and sand and treated with post emergence applications of test chemicals formulated in the same manner. Plants ranged in height from 2 to 10 cm and were in the one- to two-leaf stage for the postemergence treatment. Treated plants and untreated controls were maintained in a greenhouse for approximately 10 d, after which time all treated plants were compared to untreated controls and visually evaluated for injury. Plant response ratings, summarized in Table C, are based on a 0 to 100 scale where 0 is no effect and 100 is complete control. A dash (-)response means no test result.

[2] = test system: barnyardgrass (Echinochloa crus-galli); test: Test C preemergence, visual plant response rating
Text: as §1, §2

[3] = test system: foxtail, giant (giant foxtail, Setaria faberi); test: Test C preemergence, visual plant response rating
Text: as §1, §2

[4] = test system: kochia (Bassia scoparia); test: Test C preemergence, visual plant response rating
Text: as §1, §2

[5] = test system: pigweed (Amaranthus retroflexus); test: Test C preemergence, visual plant response rating
Text: as §1, §2

[6] = test system: Italian ryegrass (Lolium mutiflorum); test: Test C postemergence, visual plant response rating
Text: as §1, §2

[7] = test system: barnyardgrass (Echinochloa crus-galli); test: Test C postemergence, visual plant response rating
Text: as §1, §2

[8] = test system: blackgrass (Alopecurus myosuroides); test: Test C postemergence, visual plant response rating
Text: as §1, §2

[9] = test system: corn (Zea mays); test: Test C postemergence, visual plant response rating
Text: as §1, §2

[10] = test system: foxtail, giant (giant foxtail, Setaria faberi); test: Test C postemergence, visual plant response rating
Text: as §1, §2

[11] = test system: galium (catchweed bedstraw, Galium aparine); test: Test C postemergence, visual plant response rating
Text: as §1, §2

[12] = test system: kochia (Bassia scoparia); test: Test C postemergence, visual plant response rating
Text: as §1, §2

[13] = test system: pigweed (Amaranthus retroflexus); test: Test C postemergence, visual plant response rating
Text: as §1, §2

[14] = test system: ragweed (common ragweed, Ambrosia artemisiifolia); test: Test C postemergence, visual plant response rating
Text: as §1, §2

[15] = test system: wheat (Triticum aestivum); test: Test C postemergence, visual plant response rating
Text: as §1, §2

[16] = test system: barnyardgrass (Echinochloa crus-galli); test: Test D flooded paddy test, visual plant response rating; details: 250 g ai/ha, scale 0 to 100 (0 no effect, 100 complete control), 13 to 15 d
Method: (§3) Plant species in the flooded paddy test selected from rice (Oryza sativa), sedge umbrella (small-flower umbrella sedge, Cyperus difformis) duck salad (Heteranthera limosa), and barnyardgrass (Echinochloa crus-galli) were grown to the 2-leaf stage for testing. At time of treatment, test pots were flooded to 3 cm above the soil surface, treated by application of test compounds directly to the paddy water, and then maintained at that water depth for the duration of the test. Treated plants and controls were maintained in a greenhouse for 13 to 15 d, after which time all species were compared to controls and visually evaluated. Plant response ratings, summarized in Table D, are based on a scale of 0 to 100 where 0 is no effect and 100 is complete control. A dash (-) response means no test result.

[17] = test system: duck salad (Heteranthera limosa); test: as above; details: 250 g ai/ha, scale 0 to 100 (0 no effect, 100 complete control), 13 to 15 d
Method: as §3

[18] = test system: rice (Oryza sativa); test: as above; details: 250 g ai/ha, scale 0 to 100 (0 no effect, 100 complete control), 13 to 15 d
Method: as §3

[19] = test system: sedge umbrella (small-flower umbrella sedge, Cyperus difformis); test: as above; details: 250 g ai/ha, scale 0 to 100 (0 no effect, 100 complete control), 13 to 15 d
Method: as §3

[20] = Test C, postemergence, 125 g ai/ha
[21] = Test C, postemergence, 500 g ai/ha
[22] = Test C, 31 g ai/ha, 0 is no effect, 100 is complete control
[23] = Test C, 125 g ai/ha, 0 is no effect, 100 is complete control

Compound | Ryegrass, Italian plant response rating (0 to 100 scale) ([1]; 125 g ai/ha) | Barnyardgrass plant response rating (0 to 100 scale) ([2]; 125 g ai/ha) | Foxtail, Giant plant response rating (0 to 100 scale) ([3]; 125 g ai/ha) | Kochia plant response rating (0 to 100 scale) ([4]; 125 g ai/ha) | Pigweed plant response rating (0 to 100 scale) ([5]; 125 g ai/ha) | Ryegrass, Italian plant response rating (0 to 100 scale) [6, 20] | Barnyardgrass plant response rating (0 to 100 scale) [7, 20] | Blackgrass plant response rating (0 to 100 scale) [8, 20] | Corn plant response rating (0 to 100 scale) [9, 20] | Foxtail, Giant plant response rating (0 to 100 scale) [10, 20] | Galium plant response rating (0 to 100 scale) [11, 20] | Kochia plant response rating (0 to 100 scale) [12, 20] | Pigweed plant response rating (0 to 100 scale) [13, 20] | Ragweed plant response rating (0 to 100 scale) [14, 20] | Wheat plant response rating (0 to 100 scale) [15, 20] | Plant response rating, Barnyardgrass (Flood) [16] | Plant response rating, Ducksalad (Flood) [17] | Plant response rating, Rice (Flood) [18] | Plant response rating, Sedge, Umbrella (Flood) [19] | Ryegrass, Italian plant response rating (0 to 100 scale) [1, 22] | other results
C#CCON=C(c1c(O)c(OC)nn(C)c1=O)c1cccc2ccccc12 (mixture of isomers) [Compound 168] | 20 | 60 | 80 | 0 | 100 | 40 | 40 | 20 | 0 | 50 | 70 | 70 | 60 | 60 | 0 | 0 | 0 | 0 | 0 | – | Ryegrass, Italian plant response rating (0 to 100 scale) ([1]; 500 g ai/ha): 90; Barnyardgrass plant response rating (0 to 100 scale) ([2]; 500 g ai/ha): 80; Foxtail, Giant plant response rating (0 to 100 scale) ([3]; 500 g ai/ha): 100; Kochia plant response rating (0 to 100 scale) ([4]; 500 g ai/ha): 10; Pigweed plant response rating (0 to 100 scale) ([5]; 500 g ai/ha): 100; Ryegrass, Italian plant response rating (0 to 100 scale) [6, 21]: 90; Barnyardgrass plant response rating (0 to 100 scale) [7, 21]: 60; Blackgrass plant response rating (0 to 100 scale) [8, 21]: 80; Corn plant response rating (0 to 100 scale) [9, 21]: 20; Foxtail, Giant plant response rating (0 to 100 scale) [10, 21]: 90; Galium plant response rating (0 to 100 scale) [11, 21]: 90; Kochia plant response rating (0 to 100 scale) [12, 21]: 80; Pigweed plant response rating (0 to 100 scale) [13, 21]: 100; Ragweed plant response rating (0 to 100 scale) [14, 21]: 90; Wheat plant response rating (0 to 100 scale) [15, 21]: 30
CO/N=C(/c1c(O)c(Cl)nn(C)c1=O)c1ccc(F)c2ccccc12 [Compound 207] | – | – | – | – | – | 80 | 60 | 20 | 10 | 70 | 100 | 70 | 80 | 90 | 0 | 0 | 0 | 0 | 0 | 40 | Ryegrass, Italian plant response rating (0 to 100 scale) [1, 23]: 80; Barnyardgrass plant response rating (0 to 100 scale) [2, 22]: 20; Barnyardgrass plant response rating (0 to 100 scale) [2, 23]: 80; Foxtail, Giant plant response rating (0 to 100 scale) [3, 22]: 30; Foxtail, Giant plant response rating (0 to 100 scale) [3, 23]: 90; Kochia plant response rating (0 to 100 scale) [4, 22]: 0; Kochia plant response rating (0 to 100 scale) [4, 23]: 60; Pigweed plant response rating (0 to 100 scale) [5, 22]: 50; Pigweed plant response rating (0 to 100 scale) [5, 23]: 80; Ryegrass, Italian plant response rating (0 to 100 scale) ([6]; Postemergence, 31 g ai/ha): 20; Barnyardgrass plant response rating (0 to 100 scale) ([7]; Postemergence, 31 g ai/ha): 20; Blackgrass plant response rating (0 to 100 scale) ([8]; Postemergence, 31 g ai/ha): 30; Corn plant response rating (0 to 100 scale) ([9]; Postemergence, 31 g ai/ha): 30; Foxtail, Giant plant response rating (0 to 100 scale) ([10]; Postemergence, 31 g ai/ha): 30; Galium plant response rating (0 to 100 scale) ([11]; Postemergence, 31 g ai/ha): 90; Kochia plant response rating (0 to 100 scale) ([12]; Postemergence, 31 g ai/ha): 60; Pigweed plant response rating (0 to 100 scale) ([13]; Postemergence, 31 g ai/ha): 50; Ragweed plant response rating (0 to 100 scale) ([14]; Postemergence, 31 g ai/ha): 30; Wheat plant response rating (0 to 100 scale) ([15]; Postemergence, 31 g ai/ha): 0
CON=C(c1cc(Cl)cc(Cl)c1)c1c(O)c(C)nn(C)c1=O [Compound 189] | 100 | 90 | 90 | 40 | 100 | 100 | 50 | 30 | 10 | 80 | 100 | 90 | 80 | 90 | 50 | 0 | 25 | 15 | 35 | 90 | Barnyardgrass plant response rating (0 to 100 scale) [2, 22]: 20; Foxtail, Giant plant response rating (0 to 100 scale) [3, 22]: 20; Kochia plant response rating (0 to 100 scale) [4, 22]: 0; Pigweed plant response rating (0 to 100 scale) [5, 22]: 70; Ryegrass, Italian plant response rating (0 to 100 scale) ([6]; Postemergence, 31 g ai/ha): 90; Barnyardgrass plant response rating (0 to 100 scale) ([7]; Postemergence, 31 g ai/ha): 30; Blackgrass plant response rating (0 to 100 scale) ([8]; Postemergence, 31 g ai/ha): 10; Corn plant response rating (0 to 100 scale) ([9]; Postemergence, 31 g ai/ha): 0; Foxtail, Giant plant response rating (0 to 100 scale) ([10]; Postemergence, 31 g ai/ha): 50; Galium plant response rating (0 to 100 scale) ([11]; Postemergence, 31 g ai/ha): 100; Kochia plant response rating (0 to 100 scale) ([12]; Postemergence, 31 g ai/ha): 70; Pigweed plant response rating (0 to 100 scale) ([13]; Postemergence, 31 g ai/ha): 50; Ragweed plant response rating (0 to 100 scale) ([14]; Postemergence, 31 g ai/ha): 70; Wheat plant response rating (0 to 100 scale) ([15]; Postemergence, 31 g ai/ha): 10
C#CCO/N=C(\c1cc(Cl)cc(Cl)c1Cl)c1c(O)c(C)nn(C)c1=O [Compound 184] | 100 | 90 | 100 | 0 | 60 | 80 | 60 | 0 | 10 | 80 | 90 | 10 | 20 | 100 | 0 | 0 | 0 | 0 | 0 | 0 | Barnyardgrass plant response rating (0 to 100 scale) [2, 22]: 0; Foxtail, Giant plant response rating (0 to 100 scale) [3, 22]: 60; Kochia plant response rating (0 to 100 scale) [4, 22]: 0; Pigweed plant response rating (0 to 100 scale) [5, 22]: 50; Ryegrass, Italian plant response rating (0 to 100 scale) ([6]; Postemergence, 31 g ai/ha): 0; Barnyardgrass plant response rating (0 to 100 scale) ([7]; Postemergence, 31 g ai/ha): 50; Blackgrass plant response rating (0 to 100 scale) ([8]; Postemergence, 31 g ai/ha): 0; Corn plant response rating (0 to 100 scale) ([9]; Postemergence, 31 g ai/ha): 0; Foxtail, Giant plant response rating (0 to 100 scale) ([10]; Postemergence, 31 g ai/ha): 60; Galium plant response rating (0 to 100 scale) ([11]; Postemergence, 31 g ai/ha): 60; Kochia plant response rating (0 to 100 scale) ([12]; Postemergence, 31 g ai/ha): 10; Pigweed plant response rating (0 to 100 scale) ([13]; Postemergence, 31 g ai/ha): 10; Ragweed plant response rating (0 to 100 scale) ([14]; Postemergence, 31 g ai/ha): 60; Wheat plant response rating (0 to 100 scale) ([15]; Postemergence, 31 g ai/ha): 0
